Where a SMILES comes first, the peptide text is derived from it. The star is where a group is joined. Myristoyl = CCCCCCCCCCCCCC(=O)*
Experiment: Solubility of the lyophilised peptide
Type: physicochemical
Description: The crude peptide was desalted via gel filtration (Sephadex G10, 0.1% TFA in water) before purification by preparative C18 Vydac) high performance liquid chromatography (HPLC) using 0.1% trifluoroacetic acid and 0.1% trifluoroacetic acid/90% acetonitrile as gradient components. After lyophilisation, the peptide was a white amorphous powder, soluble to at least 10 mg/mL in both dimethylsulfoxide and water. Fast atom bombardment spectrometry gave a main peak at 2101 amu corresponding to the molecular ion of the peptide.

solubility (in dimethylsulfoxide): ≥ 10000 µg/mL
solubility (in water): ≥ 10000 µg/mL
SMILES: CCCCCCCCCCCCCC(=O)NCC(=O)N[C@@H](CO)C(=O)N[C@@H](CO)C(=O)N[C@@H](CCCCN)C(=O)N[C@@H](CO)C(=O)N1CCC[C@H]1C(=O)N[C@@H](CO)C(=O)N[C@@H](CCCCN)C(=O)N[C@@H](CCCCN)C(=O)N[C@@H](CC(=O)O)C(=O)N[C@@H](CC(=O)O)C(=O)N[C@@H](CCCCN)C(=O)N[C@@H](CCCCN)C(=O)N1CCC[C@H]1C(=O)NCC(=O)N[C@@H](CC(=O)O)C(=O)N[C@@H](CCCCNC(=O)[C@@H](N)CS)C(N)=O [MSWP2278, Myristoyl-Gly-Ser-Ser-Lys-Ser-Pro-Ser-Lys-Lys-Asp-Asp-Lys-Lys-Pro-Gly-Asp-(ε-amino-cysteinyl carboxamide)-Lys-NH2] (Myristoyl-GSSKSPSKKDDKKPGDK(Cys)-NH2)
